Source: the supplement of paper PMC8671470

How the values were obtained:
Conditions in all cases: 72 h
[1] = test system: myeloid leukemia patient primary cells Pat.9; assay: area under dose-response curve (viability, 1 nM-10 uM) (fraction (0-1)); higher = more sensitive
Experimental: (§1)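 AUC (0–1, higher = more sensitive) of the 5-point dose–response (1 nM–10 µM, 72 h, CellTiter-Glo) in primary AML/CML patient mononuclear cells. 0.030103 is the floor for inactive compounds.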

[2] = test system: myeloid leukemia patient primary cells Pat.8; assay: as above
Experimental: as §1

[3] = test system: myeloid leukemia patient primary cells Pat.3; assay: as above
Experimental: as §1

[4] = test system: myeloid leukemia patient primary cells Pat.11; assay: as above
Experimental: as §1

[5] = test system: myeloid leukemia patient primary cells Pat.2; assay: as above
Experimental: as §1

[6] = test system: myeloid leukemia patient primary cells Pat.4; assay: as above
Experimental: as §1

[7] = test system: myeloid leukemia patient primary cells Pat.7; assay: as above
Experimental: as §1

[8] = test system: myeloid leukemia patient primary cells Pat.1; assay: as above
Experimental: as §1

[9] = test system: myeloid leukemia patient primary cells Pat.6; assay: as above
Experimental: as §1

[10] = test system: myeloid leukemia patient primary cells Pat.14; assay: as above
Experimental: as §1

[11] = test system: myeloid leukemia patient primary cells Pat.12; assay: as above
Experimental: as §1

[12] = test system: myeloid leukemia patient primary cells Pat.15; assay: as above
Experimental: as §1

[13] = test system: myeloid leukemia patient primary cells Pat.5; assay: as above
Experimental: as §1

[14] = test system: myeloid leukemia patient primary cells Pat.13; assay: as above
Experimental: as §1

[15] = test system: myeloid leukemia patient primary cells Pat.10; assay: as above
Experimental: as §1

[16] = test system: myeloid leukemia patient primary cells Pat.9; assay: cell viability (% survival relative to DMSO control); higher = less cytotoxic
Summary of the method: (§2)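 Where an area under the curve appears, it was computed with the drc and PharmacoGx R packages from log-logistic fits. Those fits used four parameters. The underlying viability data came from CellTiter-Glo after 72 h, normalised to DMSO and 10 μM proteasome-inhibitor wells, with thawed, Ficoll-purified AML or CML patient mononuclear cells at 10,000 cells/well in RPMI 1640 with 10% FBS on 384-well plates pre-printed with 70 compounds at five tenfold concentrations (1–10,000 nM) in duplicate.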

[17] = test system: myeloid leukemia patient primary cells Pat.11; assay: as above
Summary of the method: as §2

[18] = test system: myeloid leukemia patient primary cells Pat.2; assay: as above
Summary of the method: as §2

[19] = test system: myeloid leukemia patient primary cells Pat.1; assay: as above
Summary of the method: as §2

[20] = test system: myeloid leukemia patient primary cells Pat.5; assay: as above
Summary of the method: as §2

[21] = test system: myeloid leukemia patient primary cells Pat.13; assay: as above
Summary of the method: as §2

HL-60 [22] = assay: cell viability (% survival relative to DMSO control); higher = less cytotoxic
Summary of the method: (§3)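 In 384-well plates, the full library was rescreened in duplicate on HL-60 cells in RPMI 1640 with 10% FBS, at 1–10,000 nM in five tenfold concentrations, for 72 h at 37 °C, 5% CO2. Each run also held DMSO or 100 nM of one of three metabolic inhibitors. Viability was measured by CellTiter-Glo and normalised to DMSO wells and to wells with proteasome inhibitor, present at 10 μM. Any area under the curve comes from four-parameter log-logistic fitting with drc and PharmacoGx.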

HL-60 [23] = assay: area under dose-response curve (viability, 1 nM-10 uM) (fraction (0-1)); higher = more sensitive
Summary of the method: as §3

Nc1nc(O)c2c(CCc3ccc(C(=O)N[C@@H](CCC(=O)O)C(=O)O)cc3)c[nH]c2n1 [Pemetrexed]
Conditions	area under dose-response curve
[1]	0.0468
[2]	< 0.0301
[3]	0.196
[4]	< 0.0301
[5]	< 0.0301
[6]	< 0.0301
[7]	< 0.0301
[8]	< 0.0301
[9]	< 0.0301
[10]	< 0.0301
[11]	< 0.0301
[12]	< 0.0301
[13]	0.0877
[14]	< 0.0301
[15]	< 0.0301

Conditions	area under dose-response curve, co-treatment: AZD3965 100 nM	area under dose-response curve, co-treatment: DMSO vehicle	area under dose-response curve, co-treatment: GSK2194069 100 nM	area under dose-response curve, co-treatment: pictilisib 100 nM	cell viability, 1 nM [%]	cell viability, 10 nM [%]	cell viability, 100 nM [%]	cell viability, 1000 nM [%]	cell viability, 10000 nM [%]
HL-60 [23]	0.24	0.233	0.236	0.223	–	–	–	–	–
[16]	–	–	–	–	94.3	67.3	50.7	> 100	32.6
[17]	–	–	–	–	> 100	> 100	> 100	> 100	93.9
[18]	–	–	–	–	81.9	96.3	97.9	94.3	87.3
[19]	–	–	–	–	> 100	99.3	> 100	96.8	84.1
[20]	–	–	–	–	> 100	88.1	43.2	83.4	14.5
[21]	–	–	–	–	91.5	94.6	90.8	82.7	82

cell viability [%], HL-60 [22]
Conditions	0.001 µM	0.01 µM	0.1 µM	1 µM	10 µM
co-treatment: AZD3965 100 nM	91.8	98.6	107	41.5	28
co-treatment: DMSO vehicle	102	100.6	112	43.8	36.8
co-treatment: GSK2194069 100 nM	71.6	95.7	122	40.1	32.2
co-treatment: pictilisib 100 nM	74.2	100.6	121	47.2	32.2

C=C1NC(=O)c2cc(CN(C)c3ccc(C(=O)N[C@@H](CCC(=O)O)C(=O)O)s3)ccc2N1 [Raltitrexed]
Conditions	area under dose-response curve
[1]	< 0.0301
[2]	< 0.0301
[3]	0.324
[4]	< 0.0301
[5]	< 0.0301
[6]	< 0.0301
[7]	< 0.0301
[8]	< 0.0301
[9]	< 0.0301
[10]	< 0.0301
[11]	< 0.0301
[12]	< 0.0301
[13]	< 0.0301
[14]	< 0.0301
[15]	< 0.0301

Conditions	area under dose-response curve, co-treatment: AZD3965 100 nM	area under dose-response curve, co-treatment: DMSO vehicle	area under dose-response curve, co-treatment: GSK2194069 100 nM	area under dose-response curve, co-treatment: pictilisib 100 nM	cell viability, 1 nM [%]	cell viability, 10 nM [%]	cell viability, 100 nM [%]	cell viability, 1000 nM [%]	cell viability, 10000 nM [%]
HL-60 [23]	0.598	0.412	0.42	0.432	–	–	–	–	–
[16]	–	–	–	–	40.5	84	81.9	54.5	72.8
[17]	–	–	–	–	93.9	97.3	99.3	97.4	99.2
[18]	–	–	–	–	95.5	95	> 100	99.7	98.5
[19]	–	–	–	–	79.1	96.9	99.9	93.7	> 100
[20]	–	–	–	–	43.3	90.4	> 100	87	92.7
[21]	–	–	–	–	> 100	85.4	> 100	92.6	95.5

cell viability [%], HL-60 [22]
Conditions	0.001 µM	0.01 µM	0.1 µM	1 µM	10 µM
co-treatment: AZD3965 100 nM	99.38	74.1	76.3	25.7	24.2
co-treatment: DMSO vehicle	101	88.5	55.7	31.6	27.6
co-treatment: GSK2194069 100 nM	98.5	79.7	53.7	30.6	23.3
co-treatment: pictilisib 100 nM	101	78.4	51.8	34.2	26.11

O=C(Oc1cccc(F)c1OC(=O)c1cccc(O)c1)c1cccc(O)c1 [WZB117]
Conditions	area under dose-response curve
[1]	0.223
[2]	0.211
[3]	0.162
[4]	0.0511
[5]	0.0336
[6]	0.0833
[7]	0.119
[8]	0.0346
[9]	< 0.0301
[10]	0.107
[11]	0.0633
[13]	0.748
[14]	< 0.0301
[15]	0.176

cell viability [%]
Conditions	[16]	[17]	[18]	[19]	[20]	[21]
1 nM	60.3	> 100	99.7	98	96.4	94.5
10 nM	27.8	94.1	83.5	81.2	23.7	86.2
100 nM	46.5	> 100	90.5	78	4.78	78.5
1000 nM	59.5	95.1	93.6	88.7	26.1	91
10000 nM	2.92	75.4	77.1	47.3	3.37	63.9

cell viability [%], HL-60 [22]
Conditions	0.001 µM	0.01 µM	0.1 µM	1 µM	10 µM
co-treatment: AZD3965 100 nM	102.1	97.3	103.1	101.6	68.9
co-treatment: DMSO vehicle	103	98.8	99	101	73.3
co-treatment: GSK2194069 100 nM	102	91.2	95.2	99.8	84.6
co-treatment: pictilisib 100 nM	111	100	96.8	97.1	70.9
